Assay [1] has as its system KB cells (human carcinoma cells). Description: Growth inhibition of chemosensitive KB cells after drug incubation and laser exposure. The conditions noted are these: for IC50: KB (w.t.), 10 min incubation, 3 days culture, read-out: 50% inhibitory concentration (cell growth). The format is cell-based. As to the method:
(§1) In addition, chemosensitive KB cells (human carcinoma cells) were compared with their chemoresistant KBC5-8 variant. The multi-chemoresistance of the latter is also P-glycoprotein-mediated and was induced experimentally by colchicine addition to the cell culture medium. Before the experiment started, the human carcinoma cells were typsinized and suspended in fresh cell culture medium.
(§2) Then, the cells were incubated with graded concentrations of vinblastin and napavin (photoactivity-labeled cytostatic agent). […] The mouse ascites cells were incubated with these pharmacetuical agents for five minutes. The human tumor cells were incubated for ten minutes. Then, the cell suspensions were transferred by pipetting into plastic dishes or trays and exposed using an argon laser (457.8 nm, 48 mW/cm^2) at room temperature for 1 minute. Thereafter, the cells were washed with fresh cell culture medium twice and cultured in 24-well multidishes or multitrays for three days. At the end of the experiment, cell growth was measured and the 50% inhibitory concentration of the cytostatic agents vinblastin and napavin was determined graphically as usual.

Assay [2] relates to KBC5-8 variant (P-glycoprotein-mediated multi-chemoresistance). Description: Growth inhibition of multi-chemoresistant KBC5-8 cells after drug incubation and laser exposure. In kind it is cell-based, human. As to conditions: read-out: 50% inhibitory concentration (cell growth). On the procedure:
as §1, §2

The test system of assay [3] is mouse ascites cells (strain HD34K). The experiment in a line: Growth inhibition of chemosensitive mouse ascites cells HD34K after drug incubation and laser exposure. In kind it is cell-based. The conditions noted are these: HD34K (w.t.), 5 min incubation, argon laser 1 min, 3 days culture; for IC50: read-out: 50% inhibitory concentration (cell growth). On the procedure: (§3) Chemosensitive mouse ascites cells (strain HD34K) were compared with their variant (strain SR) which distinuishes itself by P-glycoprotein-mediated multi-chemoresistance. The chemoresistance of the SR cells developed spontaneously. The mouse ascites cells were suspended in fresh cell culture medium before the experiment started.
(§4) All of the experiments were carried out under flavin-protecting test conditions (Granzow et al., Cancer Res. 55, 4837-4843, (1995)). Freshly prepared cell suspensions were previously incubated at 36.5° C. for 15 minutes. Then, the cells were incubated with graded concentrations of vinblastin and napavin (photoactivity-labeled cytostatic agent). […] The mouse ascites cells were incubated with these pharmacetuical agents for five minutes. The human tumor cells were incubated for ten minutes. Then, the cell suspensions were transferred by pipetting into plastic dishes or trays and exposed using an argon laser (457.8 nm, 48 mW/cm^2) at room temperature for 1 minute. Thereafter, the cells were washed with fresh cell culture medium twice and cultured in 24-well multidishes or multitrays for three days. At the end of the experiment, cell growth was measured and the 50% inhibitory concentration of the cytostatic agents vinblastin and napavin was determined graphically as usual.

Assay [4] has as its system mouse ascites cells (strain SR, P-glycoprotein-mediated multi-chemoresistance). The experiment in a line: Growth inhibition of multi-chemoresistant mouse ascites cells SR after drug incubation and laser exposure. In kind it is cell-based. As to conditions: for IC50: read-out: 50% inhibitory concentration (cell growth); for 50% growth inhibition concentration in SR relative to wild-type (HD34K) concentration: absence of verapamil. On the procedure:
as §3, §4

The mark [5] stands for this setting: no verapamil, argon laser 457.8 nm 1 min.

Where two headings read alike, the source gives them in different places.

The source of these data is patent US6376224B1, “Pharmaceutical compositions for eliminating membrane-mediated cell resistance” (Deutsches Krebsforschungszentrum Stiftung des Offentlichen …, priority 1997, dated 2002).

Take `CC[C@]1(O)C[C@@H]2CN(CCc3c([nH]c4ccccc34)[C@@](C(=O)OC)(c3cc4c(cc3OC)N(C)[C@H]3[C@@](O)(C(=O)OC)[C@H](OC(C)=O)[C@]5(CC)C=CCN6CC[C@]43[C@@H]65)C2)C1` [VLB, vinblastin, reference compound]: the IC50 is 180 nM in assay [1] (Homo sapiens, KB, + 1 μM verapamil, argon laser 1 min); 100 to 200 nM in assay [1] (Homo sapiens, KB, no verapamil, argon laser 457.8 nm 1 min); 160 nM in assay [1] (setting [5]); 27000 nM in assay [2] (Homo sapiens); 750 nM in assay [3] (Mus musculus, + 1 μM verapamil); 660 nM in assay [3] (Mus musculus, no verapamil). For the same molecule, the IC50 in assay [4] (Mus musculus) is 7000 nM. The “50% inhibitory concentration (cell growth)” value in assay [3] (+ 1 μM verapamil) was “insignificantly higher”. In assay [4], the “50% growth inhibition concentration in SR relative to wild-type (HD34K) concentration” value is “about 10 times”.
Take `COc1ccc(CCN(C)CCCC(C#N)(c2ccc(OC)c(OC)c2)C(C)C)cc1OC` (stereo not shown) [VPM, verapamil]: in assay [1] (KB cells, vinblastin and napavin), the “Influence of verapamil on concentration required for 50% growth suppression” value is recorded as “no influence”.
Turning to napavin, the IC50 in assay [1] (+ 1 μM verapamil, argon laser 1 min) was found to be 150 nM; in assay [1] (setting [5]), 160 nM; in assay [2] (KBC5-8 (mdr), + 1 μM verapamil, 10 min incubation, argon laser 1 min, 3 days culture), 1000 nM; in assay [2] (KBC5-8 (mdr), + 2 μM verapamil, 10 min incubation, argon laser 1 min, 3 days culture), 350 nM; in assay [2] (KBC5-8 (mdr), no verapamil, 10 min incubation, argon laser 1 min, 3 days culture) it was 3800 nM; in assay [3] (+ 1 μM verapamil) it was 330 nM. Further, the IC50 in assay [3] (no verapamil, listed as napavin) was ~400 nM; in assay [3] (no verapamil), 430 nM; in assay [4] (SR (mdr), + 1 μM verapamil, 5 min incubation, argon laser 1 min, 3 days culture), 900 nM; in assay [4] (SR (mdr), + 2 μM verapamil, 5 min incubation, argon laser 1 min, 3 days culture) it was 600 nM; in assay [4] (SR (mdr), no verapamil, 5 min incubation, argon laser 1 min, 3 days culture), 4750 nM. In addition, the “50% inhibitory concentration (cell growth)” value in assay [3] (+ 1 μM verapamil) is listed as “slightly less”. For the same molecule, the “50% growth inhibition concentration in SR relative to wild-type (HD34K) concentration” value in assay [4] stood at 10 times. The “Inhibitory concentrations SR versus wild-type HD34K” value in assay [4] (with 1 μM verapamil) is reported as “no longer differ significantly”; in assay [4] (with 2 μM verapamil), “identical”.
